Common to all, as to experiment: NCI-60 one-dose screening
Common to all, as to type: cell-based

One test relates to NCI-H23. To be noted: Homo sapiens, NCI-H23, Non-Small Cell Lung Cancer, read-out: GI (%).
In the next test the test system is DU-145. As to conditions: Homo sapiens, DU-145, Prostate Cancer, read-out: GI (%).
For another test, the system named is SK-MEL-28. As to conditions: Homo sapiens, SK-MEL-28, Melanoma, read-out: GI (%).
In a further test the test system is ACHN. As to conditions: Homo sapiens, Renal Cancer, read-out: GI (%).
The test system of another test is MDA-MB-435. As to conditions: Homo sapiens, MDA-MB-435, Melanoma, read-out: GI (%).
The next test has as its system A549/ATCC. As to conditions: Homo sapiens, Non-Small Cell Lung Cancer, read-out: GI (%).
A further test concerns SF-268. To be noted: Homo sapiens, SF-268, CNS Cancer, read-out: GI (%).
Another test has as its system SF-539. To be noted: Homo sapiens, SF-539, CNS Cancer, read-out: GI (%).
The next test concerns OVCAR-4. As to conditions: Homo sapiens, OVCAR-4, 10 μM; OVCAR-4, Ovarian Cancer; read-out: GI (%).
Another test concerns MOLT-4. To be noted: Homo sapiens, MOLT-4, Leukemias, read-out: GI (%).
For another test, the system named is SK-OV-3. As to conditions: Homo sapiens, SK-OV-3, Ovarian Cancer, read-out: GI (%).
The next test has as its system UO-31. As to conditions: Homo sapiens, UO-31, Renal Cancer, read-out: GI (%).
The next test deals with LOX IMVI. As to conditions: Homo sapiens, Melanoma, read-out: GI (%).
The subject of the next test is RPMI-8226. As to conditions: Homo sapiens, RPMI-8226, Leukemias, read-out: GI (%).
Another test concerns NCI/ADR-RES. To be noted: Homo sapiens, Ovarian Cancer, read-out: GI (%).
For the next test, the system named is T-47D. To be noted: Homo sapiens, T47D, Breast Cancer, read-out: GI (%).
Another test has as its system HCT-15. To be noted: Homo sapiens, HCT-15, Colon Cancer, read-out: GI (%).
The subject of another test is 786-0. As to conditions: Homo sapiens, 786-0, Renal Cancer, read-out: GI (%).
In a further test the test system is HT29. As to conditions: Homo sapiens, HT-29, HT29, Colon Cancer, read-out: GI (%).
Another test deals with IGROV1. As to conditions: Homo sapiens, IGROV-1, IGROV1, Ovarian Cancer, read-out: GI (%).
Another test concerns UACC-62. To be noted: Homo sapiens, UACC-62, Melanoma, read-out: GI (%).

Here are results for 4 compounds from article PMC9948168, “Vanillin-Based Indolin-2-one Derivative Bearing a Pyridyl Moiety as a Promising Anti-Breast Cancer Agent via Anti-Estrogenic Activity” (ACS Omega, 2023).

`COc1ccc(COc2ccc(/C=C3/C(=O)Nc4cc(Cl)ccc43)cc2OC)cc1` [6n]: the inhibition at 10 µM is 2.17% with NCI-H23; 3.17% in the test on DU-145; -2.94% with SK-MEL-28; 5.82% in the test on ACHN; -5.13% in the test with MDA-MB-435; -12.9% with A549/ATCC. For the same compound, the inhibition at 10 µM in the test with SF-268 is 0.26%; in the test with SF-539 it was 9.72%; in the test with OVCAR-4 it was 17.6%; in the test with MOLT-4, 0.87%; in the test with SK-OV-3, -7.5%; with UO-31 it was 18.6%. In addition, the inhibition at 10 µM was -2.89% in the test with LOX IMVI; 9.52% with RPMI-8226; 0.37% in the test with NCI/ADR-RES; 12.8% in the test on T-47D; 0.12% in the test with HCT-15; -6.9% with 786-0. The results for the inhibition at 10 µM in the test with HT29, in the test with IGROV1 and with UACC-62 were -0.76%, 20.1% and 12.2%, respectively.

On to `COc1cc(C=C2C(=O)Nc3ccccc32)ccc1OCc1ccccn1` (mixture of isomers) [6e], for which the inhibition at 10 µM with NCI-H23 was 12.6%; with DU-145, 1.98%; in the test with SK-MEL-28 it was -7.83%; with ACHN, 9.08%; with MDA-MB-435, -7.05%; in the test on A549/ATCC, -7.19%. Moreover, the inhibition at 10 µM in the test with SF-268 was 6.47%; in the test with SF-539 it was 15.1%; in the test on OVCAR-4 it was 8.74%; in the test on MOLT-4, 12.5%; in the test with SK-OV-3, -2%; with UO-31, 30.7%. Besides, the inhibition at 10 µM in the test on LOX IMVI is 3.36%; in the test with RPMI-8226 it was 15.2%; in the test with NCI/ADR-RES it was 4.39%; in the test with T-47D, 15.8%; in the test on HCT-15 it was 20%; with 786-0, 1.32%. The inhibition at 10 µM in the test on HT29 is 1.19%; with IGROV1, 21%; in the test with UACC-62 it was 11.6%.

With `COc1cc(/C=C2/C(=O)Nc3cc(Cl)ccc32)ccc1OCc1ccccc1` [6k], the inhibition at 10 µM in the test with NCI-H23 is 2.27%; with DU-145, -4.08%; in the test with SK-MEL-28 it was -6.39%; in the test with ACHN it was 7.71%; in the test with MDA-MB-435, -4.45%; in the test on A549/ATCC it was -8.61%. The inhibition at 10 µM with SF-268 is -1.04%; in the test on SF-539, 5.85%; in the test with OVCAR-4, 10.4%; in the test on MOLT-4, 4.75%; in the test on SK-OV-3, -10.9%; in the test on UO-31, 16.2%. In addition, the inhibition at 10 µM in the test on LOX IMVI is 16.1%; in the test on RPMI-8226, -4.86%; in the test with NCI/ADR-RES it was -3.53%; in the test on T-47D, -0.39%; with HCT-15, 6.47%; in the test with 786-0, -8.46%. The inhibition at 10 µM in the test with HT29 was -1.24%; with IGROV1, 23.4%; in the test with UACC-62, 6.07%.

As for `COc1cc(C=C2C(=O)Nc3cc(Cl)ccc32)ccc1OCc1ccc(Cl)cc1` (mixture of isomers) [6l], the inhibition at 10 µM with NCI-H23 is 0.58%; in the test on DU-145, -3.93%; with SK-MEL-28, -1.11%; in the test with ACHN, 7.13%; with MDA-MB-435, -5.52%; with A549/ATCC, -5.86%. Also, the inhibition at 10 µM in the test with SF-268 is -5.63%; in the test on SF-539, 8.46%; with OVCAR-4 it was 25.6%; in the test with MOLT-4, 6.35%; with SK-OV-3 it was -0.69%; in the test with UO-31 it was 22.2%. In addition, the inhibition at 10 µM was -8.24% in the test with LOX IMVI; 11.9% in the test on RPMI-8226; 0.31% with NCI/ADR-RES; 14.8% with T-47D; 6.77% with HCT-15; -7.1% with 786-0. For the same compound, the inhibition at 10 µM in the test on HT29 was -5.54%; in the test on IGROV1, 27.7%; in the test on UACC-62 it was 11.1%.
